Test results from patent US6933295B2, “Substituted isoindoles and the use thereof” (Bayer Aktiengesellschaft, priority 2001, dated 2005).

| Structure (SMILES) | melting point [°C] |
| --- | --- |
| N#CCOc1ccc(CN2C(=O)c3cccc(NC(=O)c4ccc(Cl)s4)c3C2=O)cc1 [Example 6, 5-Chloro-N-{2-[4-(cyanomethoxy)benzyl]-1,3-dioxo-2,3-dihydro-1H-isoindol-4-yl}-2-thiophenecarboxamide] | 199 |
| CC(C#N)Oc1cccc(CN2C(=O)c3cccc(NC(=O)c4ccc(Cl)s4)c3C2=O)c1 (centres unmarked) [Example 7, 5-Chloro-N-{2-[3-(1-cyanoethoxy)benzyl]-1,3-dioxo-2,3-dihydro-1H-isoindol-4-yl}-2-thiophenecarboxamide] | 88 |
